Measured values reported in ChEMBL document CHEMBL4808173, “Discovery of Novel Benzimidazole and Indazole Analogues as Tubulin Polymerization Inhibitors with Potent Anticancer Activities” (J Med Chem, 2021).
pIC50, pKd: −log10 of the molar value.

Columns and labels:
MCF7 [1] = experiment: Antiproliferative activity against human MCF7 cells assessed as reduction in cell viability measured after 48 hrs by MTT assay; assay type: functional, cell-based
A549 = experiment: Antiproliferative activity against human A549 cells assessed as reduction in cell viability measured after 48 hrs by MTT assay; assay type: functional, cell-based
HeLa = experiment: Antiproliferative activity against human HeLa cells assessed as reduction in cell viability measured after 48 hrs by MTT assay; assay type: functional, cell-based
B16-F10 [2] = experiment: Antiproliferative activity against mouse B16-F10 cells assessed as reduction in cell viability measured after 48 hrs by MTT assay; assay type: functional, cell-based
MCF7 [3] = experiment: Inhibition of colony formation in human MCF7 cells assessed as decrease in colonies measured after 24 hrs by photographic imaging analysis; assay type: functional, cell-based; settings: dose 0.05-5 µM
A2780/Taxol [4] = experiment: Antiproliferative activity against human A2780T cells assessed as reduction in cell viability measured after 48 hrs by MTT assay; assay type: functional, cell-based
A2780S = experiment: Antiproliferative activity against human A2780S cells assessed as reduction in cell viability measured after 48 hrs by MTT assay; assay type: functional, cell-based
[5] = Resistance index, ratio of IC50 for antiproliferative activity against human A2780T cells assessed as reduction in cell viability measured after 48 hrs by MTT assay to IC50 for antiproliferative activity against human A2780S cells assessed as reduction in cell viability measured after 48 hrs by MTT assay; assay type: functional
A2780/Taxol [6] = experiment: Inhibition of colony formation in human A2780T cells assessed as decrease in colonies measured after 24 hrs by photographic imaging analysis; assay type: functional, cell-based; settings: dose 10-100 nM
[7] = (§1) Inhibition of pig brain tubulin polymerization by spectrophotometric method; assay type: tissue-based, Sus scrofa
Sus scrofa = organism: Sus scrofa; experiment: as §1; assay type: tissue-based
[8] = Binding affinity to immobilized pig brain tubulin assessed as equilibrium dissociation constant by SPR assay; assay type: tissue-based, Sus scrofa
B16-F10 [9] = experiment: Disruption of microtubule network in mouse […] cells measured after 6 hrs by DAPI staining based immunofluorescence microscopic assay; assay type: cell-based; settings: dose 10-40 nM
MCF7 [10] = experiment: Cell cycle analysis in human MCF7 cells assessed as accumulation at G1 phase at 5 nM measured after 48 hrs by RnaseA/propidium iodide staining based flow cytometry (reference value: 53.68 %); assay type: functional
MCF7 [11] = experiment: Cell cycle analysis in human MCF7 cells assessed as accumulation at S phase at 5 nM measured after 48 hrs by RnaseA/propidium iodide staining based flow cytometry (reference value: 27.46 %); assay type: functional
MCF7 [12] = experiment: Cell cycle analysis in human MCF7 cells assessed as accumulation at G2 phase at 5 nM measured after 48 hrs by RnaseA/propidium iodide staining based flow cytometry (reference value: 17.03 %); assay type: functional
MCF7 [13] = experiment: Cell cycle analysis in human MCF7 cells assessed as accumulation at G1 phase at 10 nM measured after 48 hrs by RnaseA/propidium iodide staining based flow cytometry (reference value: 53.68 %); assay type: functional
MCF7 [14] = experiment: Cell cycle analysis in human MCF7 cells assessed as accumulation at S phase at 10 nM measured after 48 hrs by RnaseA/propidium iodide staining based flow cytometry (reference value: 27.46 %); assay type: functional
MCF7 [15] = experiment: Cell cycle analysis in human MCF7 cells assessed as accumulation at G2 phase at 10 nM measured after 48 hrs by RnaseA/propidium iodide staining based flow cytometry (reference value: 17.03 %); assay type: functional
MCF7 [16] = experiment: Cell cycle analysis in human MCF7 cells assessed as accumulation at G1 phase at 20 nM measured after 48 hrs by RnaseA/propidium iodide staining based flow cytometry (reference value: 53.68 %); assay type: functional
MCF7 [17] = experiment: Cell cycle analysis in human MCF7 cells assessed as accumulation at S phase at 20 nM measured after 48 hrs by RnaseA/propidium iodide staining based flow cytometry (reference value: 27.46 %); assay type: functional
MCF7 [18] = experiment: Cell cycle analysis in human MCF7 cells assessed as accumulation at G2 phase at 20 nM measured after 48 hrs by RnaseA/propidium iodide staining based flow cytometry (reference value: 17.03 %); assay type: functional
MCF7 [19] = experiment: Induction of apoptosis in human MCF7 cells assessed as live cells at 5 nM measured after 48 hrs by annexinV-FITC/propidium iodide staining based flow cytometry (reference value: 88.5 %); assay type: functional
MCF7 [20] = experiment: Induction of apoptosis in human MCF7 cells assessed as early apoptotic cells at 5 nM measured after 48 hrs by annexinV-FITC/propidium iodide staining based flow cytometry (reference value: 1.89 %); assay type: functional
MCF7 [21] = experiment: Induction of apoptosis in human MCF7 cells assessed as late apoptotic cells at 5 nM measured after 48 hrs by annexinV-FITC/propidium iodide staining based flow cytometry (reference value: 5.99 %); assay type: functional
MCF7 [22] = experiment: Induction of apoptosis in human MCF7 cells assessed as necrotic cells at 5 nM measured after 48 hrs by annexinV-FITC/propidium iodide staining based flow cytometry (reference value: 2.62 %); assay type: functional
MCF7 [23] = experiment: Induction of apoptosis in human MCF7 cells assessed as live cells at 10 nM measured after 48 hrs by annexinV-FITC/propidium iodide staining based flow cytometry (reference value: 88.5 %); assay type: functional
MCF7 [24] = experiment: Induction of apoptosis in human MCF7 cells assessed as early apoptotic cells at 10 nM measured after 48 hrs by annexinV-FITC/propidium iodide staining based flow cytometry (reference value: 1.89 %); assay type: functional
MCF7 [25] = experiment: Induction of apoptosis in human MCF7 cells assessed as late apoptotic cells at 10 nM measured after 48 hrs by annexinV-FITC/propidium iodide staining based flow cytometry (reference value: 5.99 %); assay type: functional
MCF7 [26] = experiment: Induction of apoptosis in human MCF7 cells assessed as necrotic cells at 10 nM measured after 48 hrs by annexinV-FITC/propidium iodide staining based flow cytometry (reference value: 2.62 %); assay type: functional
MCF7 [27] = experiment: Induction of apoptosis in human MCF7 cells assessed as live cells at 20 nM measured after 48 hrs by annexinV-FITC/propidium iodide staining based flow cytometry (reference value: 88.5 %); assay type: functional
MCF7 [28] = experiment: Induction of apoptosis in human MCF7 cells assessed as early apoptotic cells at 20 nM measured after 48 hrs by annexinV-FITC/propidium iodide staining based flow cytometry (reference value: 1.89 %); assay type: functional
MCF7 [29] = experiment: Induction of apoptosis in human MCF7 cells assessed as late apoptotic cells at 20 nM measured after 48 hrs by annexinV-FITC/propidium iodide staining based flow cytometry (reference value: 5.99 %); assay type: functional
MCF7 [30] = experiment: Induction of apoptosis in human MCF7 cells assessed as necrotic cells at 20 nM measured after 48 hrs by annexinV-FITC/propidium iodide staining based flow cytometry (reference value: 2.62 %); assay type: functional
B16-F10 [31] = experiment: Antimigratory activity in mouse B16-F10 cells assessed as inhibition of cell migration by measuring wound closure at 5 nM measured after 24 hrs (reference value: 51.92 +/- 2.02 %); assay type: functional; parameters: scale not given: the % may be the effect or the level left
B16-F10 [32] = experiment: Antimigratory activity in mouse B16-F10 cells assessed as inhibition of cell migration by measuring wound closure at 10 nM measured after 24 hrs (reference value: 51.92 +/- 2.02 %); assay type: functional; parameters: scale not given: the % may be the effect or the level left
B16-F10 [33] = experiment: Antimigratory activity in mouse B16-F10 cells assessed as inhibition of cell migration by measuring wound closure at 20 nM measured after 24 hrs (reference value: 51.92 +/- 2.02 %); assay type: functional; parameters: scale not given: the % may be the effect or the level left
B16-F10 [34] = experiment: Antimigratory activity in mouse B16-F10 cells assessed as inhibition of cell migration measured after 24 hrs; assay type: functional, cell-based; settings: dose 5-20 nM
B16-F10 [35] = experiment: Antitumor activity against mouse B16-F10 cells inoculated in BALB/c mouse assessed as tumor growth inhibition at 15 mg/kg, ip qd for 14 days by caliper method relative to control; assay type: functional; settings: 336 h, time 14 day, read-out: TGI
B16-F10 [36] = experiment: Antitumor activity against mouse B16-F10 cells inoculated in BALB/c mouse assessed as tumor growth inhibition at 30 mg/kg, ip qd for 14 days by caliper method relative to control; assay type: functional; settings: 336 h, time 14 day, read-out: TGI
[37] = Acute toxicity in BALB/c mouse inoculated with mouse B16-F10 cells assessed as effect on body weight at 15 mg/kg, ip qd for 14 days; assay type: organism-based; settings: in vivo, 336 h, time 14 day
[38] = Acute toxicity in BALB/c mouse inoculated with mouse B16-F10 cells assessed as effect on liver at 15 to 30 mg/kg, ip qd for 14 days by hematoxylin and eosin staining based analysis; assay type: organism-based; settings: in vivo, 336 h, dose 15-30 mg/kg, time 14 day
[39] = Acute toxicity in BALB/c mouse inoculated with mouse B16-F10 cells assessed as effect on kidney at 15 to 30 mg/kg, ip qd for 14 days by hematoxylin and eosin staining based analysis; assay type: organism-based; settings: in vivo, 336 h, dose 15-30 mg/kg, time 14 day

## COc1cc(-c2cccc3[nH]c(-c4cccc5c4ccn5C)nc23)cc(OC)c1OC
MCF7 [1]
  Activity: Dose-Dependent Effect
MCF7 [1]; MCF7, 48 h
  pIC50: 7.74
A549
  Activity: Dose-Dependent Effect
A549; A549, 48 h
  pIC50: 7.07
HeLa
  Activity: Dose-Dependent Effect
  pIC50: 7.17
B16-F10 [2]
  Activity: Dose-Dependent Effect
B16-F10 [2]; B16-F10, 48 h
  pIC50: 7.54
MCF7 [3]
  inhibition: Dose-Dependent Effect
A2780/Taxol [4]
  pIC50: 8.01
A2780S
  pIC50: 8.21
[5]
  Ratio IC50: 1.6
A2780/Taxol [6]
  inhibition: Dose-Dependent Effect
[7]
  pIC50: 5.60
Sus scrofa
  inhibition: Dose-Dependent Effect
[8]
  pKd: 4.90
B16-F10 [9]
  Activity: Dose-Dependent Effect
MCF7 [10]
  Activity: 62.06%
MCF7 [11]
  Activity: 23.09%
MCF7 [12]
  Activity: 13.41%
MCF7 [13]
  Activity: 13.1%
MCF7 [14]
  Activity: 22.93%
MCF7 [15]
  Activity: 62.8%
MCF7 [16]
  Activity: 17.16%
MCF7 [17]
  Activity: 19.63%
MCF7 [18]
  Activity: 62.16%
MCF7 [19]
  Activity: 83.7%
MCF7 [20]
  Activity: 2.98%
MCF7 [21]
  Activity: 9.04%
MCF7 [22]
  Activity: 4.26%
MCF7 [23]
  Activity: 84.4%
MCF7 [24]
  Activity: 5.12%
MCF7 [25]
  Activity: 28.4%
MCF7 [26]
  Activity: 2.12%
MCF7 [27]
  Activity: 58.9%
MCF7 [28]
  Activity: 4.69%
MCF7 [29]
  Activity: 34.3%
MCF7 [30]
  Activity: 2.14%
B16-F10 [31]
  Activity: 29.42%
B16-F10 [32]
  Activity: 15.68%
B16-F10 [33]
  Activity: 6.6%
B16-F10 [34]
  inhibition: Dose-Dependent Effect
B16-F10 [35]
  inhibition in vivo at 15 mg/kg: 78.7%
B16-F10 [36]
  inhibition in vivo at 30 mg/kg: 84.3%
[37]
  Activity: Non-Toxic
[38]
  Activity: Non-Toxic
[39]
  Activity: Non-Toxic
